Measurements as given in patent US20200216439A1, “HETERO-1,5,6,7-TETRAHYDRO-4H-INDOL-4-ONES” (BAYER PHARMA AKTIENGESELLSCHAFT, priority 2015, published 2020).
pIC50: −log10 of the molar value.

biological target: T1, catalytic domain of human Bub1 (amino acids 704-1085) (Homo sapiens, UniProt O43683); experiment: Bub1 kinase assay (TR-FRET); type: biochemical; details: TR-FRET; ATP 10 μM, peptide substrate 1 μM; 60 min at 22° C.; average or median if tested more than once; read-out: Inhibition of Bub1 kinase IC50
T1 construct: catalytic domain of human Bub1 (amino acids 704-1085); His6 (N); made in house; host or cells: Hi5 insect cells
In short: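 Human Bub1 catalytic domain (704-1085, His6-tagged, Hi5-expressed, ~200 ng/mL) preincubated with compound 15 min at 22 °C, then reacted 60 min at 22 °C with 10 μM ATP and 1 μM biotinylated peptide substrate, pH 7.5. EDTA stop; TR-FRET 665/620 ratio; IC50 from 4-parameter fit, 11 concentrations in duplicate.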

T1 sequence (O43683 704-1085): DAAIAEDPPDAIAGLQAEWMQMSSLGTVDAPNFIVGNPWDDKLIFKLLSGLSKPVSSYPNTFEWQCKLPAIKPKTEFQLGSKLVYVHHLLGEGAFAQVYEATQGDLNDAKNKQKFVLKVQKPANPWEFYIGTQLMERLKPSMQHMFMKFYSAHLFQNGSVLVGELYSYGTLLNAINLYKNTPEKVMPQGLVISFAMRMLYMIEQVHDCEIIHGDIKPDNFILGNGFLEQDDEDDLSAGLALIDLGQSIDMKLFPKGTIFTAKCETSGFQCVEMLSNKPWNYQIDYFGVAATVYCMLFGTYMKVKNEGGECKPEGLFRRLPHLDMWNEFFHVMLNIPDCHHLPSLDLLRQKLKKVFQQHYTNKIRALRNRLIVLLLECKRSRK

pIC50 | Structure (SMILES)
8.52 | O=C1CN(S(=O)(=O)c2cnc[nH]2)Cc2[nH]c(-c3ccnc(NC(=O)[C@@H]4C[C@@H]4F)c3)c(Nc3ccccc3)c21 [Example 204, (1S,2S)-2-Fluoro-N-4-[6-(1H-imidazol-5-ylsulfonyl)-4-oxo-3-(phenylamino)-4,5,6,7-tetrahydro-1H-pyrrolo[2,3-c]pyridin-2-yl]pyridin-2-ylcyclopropanecarboxamide]
8.05 | COC(=O)N1CC(=O)c2c([nH]c(-c3ccncc3OCC3CC3)c2Nc2ccccc2)C1 [Example 250, Methyl 2-[3-(cyclopropylmethoxy)pyridin-4-yl]-4-oxo-3-(phenylamino)-1,4,5,7-tetrahydro-6H-pyrrolo[2,3-c]pyridine-6-carboxylate]
8.05 | O=C1CN(C(=O)c2ccncc2)Cc2[nH]c(-c3ccncc3)c(Nc3ccccc3)c21 [Example 63, 3-(phenylamino)-2-(pyridin-4-yl)-6-(pyridin-4-ylcarbonyl)-1,5,6,7-tetrahydro-4H-pyrrolo[2,3-c]pyridin-4-one]
7.30 | CC(=O)Nc1cc(-c2[nH]c3c(c2Nc2ccc(C)cc2)C(=O)CN(C(=O)N(C)C)C3)ccn1 [Example 317, 2-[2-(Acetylamino)pyridin-4-yl]-N,N-dimethyl-3-[(4-methylphenyl)amino]-4-oxo-1,4,5,7-tetrahydro-6H-pyrrolo[2,3-c]pyridine-6-carboxamide]
8.40 | CC(=O)Nc1cc(-c2[nH]c3c(c2Nc2ccccc2)C(=O)CN(S(C)(=O)=O)C3)ccn1 [Example 32, N-{4-[6-(Methylsulfonyl)-4-oxo-3-(phenylamino)-4,5,6,7-tetrahydro-1H-pyrrolo[2,3-c]pyridin-2-yl]pyridin-2-yl}acetamide]
8.10 | CC(C)OC(=O)N1CC(=O)c2c([nH]c(-c3ccnc(NC(=O)C4CC4(F)F)c3)c2Nc2ccccc2)C1 (racemic) [Example 158, Isopropyl 3-anilino-2-[2-({[(1RS)-2,2-difluorocyclopropyl]carbonyl}amino)pyridin-4-yl]-4-oxo-1,4,5,7-tetrahydro-6H-pyrrolo[2,3-c]pyridine-6-carboxylate]
7.66 | CC(=O)Nc1cc(-c2[nH]c3c(c2Nc2ccccc2)C(=O)CN(C(=O)CC(C)(C)C(F)(F)F)C3)ccn1 [Example 219, N-{4-[3-Anilino-4-oxo-6-(4,4,4-trifluoro-3,3-dimethylbutanoyl)-4,5,6,7-tetrahydro-1H-pyrrolo[2,3-c]pyridin-2-yl]pyridin-2-yl}acetamide]
7.51 | COc1cc(C(=O)Nc2cc(-c3[nH]c4c(c3Nc3ccccc3)C(=O)COC4)ccn2)ccc1F [Example 140, N-[4-(3-Anilino-4-oxo-1,4,5,7-tetrahydropyrano[3,4-b]pyrrol-2-yl)pyridin-2-yl]-4-fluoro-3-methoxybenzamide]
8.40 | O=C1CN(C(=O)N2CCCCC2)Cc2[nH]c(-c3ccncc3)c(Nc3ccccc3)c21 [Example 93, 3-(phenylamino)-6-(piperidin-1-ylcarbonyl)-2-(pyridin-4-yl)-1,5,6,7-tetrahydro-4H-pyrrolo[2,3-c]pyridin-4-one]
6.94 | CS(=O)(=O)CC(=O)Nc1cc(-c2[nH]c3c(c2Nc2ccccc2)C(=O)COC3)ccn1 [Example 48, 2-(Methylsulfonyl)-N-{4-[4-oxo-3-(phenylamino)-1,4,5,7-tetrahydropyrano[3,4-b]pyrrol-2-yl]pyridin-2-yl}acetamide]
7.23 | COC(=O)N1CC(=O)c2c([nH]c(-c3ccnc(C)n3)c2Nc2ccccc2)C1 [Example 27, Methyl 2-(2-methylpyrimidin-4-yl)-4-oxo-3-(phenylamino)-1,4,5,7-tetrahydro-6H-pyrrolo[2,3-c]pyridine-6-carboxylate]
6.81 | CC(=O)Nc1cc(-c2[nH]c3c(c2Nc2ccccc2)C(=O)CNC3)ccn1 [Example 24, N-{4-[4-Oxo-3-(phenylamino)-4,5,6,7-tetrahydro-1H-pyrrolo[2,3-c]pyridin-2-yl]pyridin-2-yl}acetamide]
